# Results published in patent publication US11136296B2, “Substituted N-arylethyl-2-arylquinoline-4-carboxamides and use thereof” (Bayer Aktiengesellschaft, priority 2017, dated 2021).
# Biological target: FP receptor (Homo sapiens (Human), UniProt P43088)
# Test: In vitro test of inhibition of human FP receptor activity (PGF2α-induced calcium flux in FP-expressing CHEM1 cells)
# Format: cell-based
# Details: PGF2α-induced (2 nM) calcium flux in FP-expressing CHEM1 cells; some as mean values from multiple determinations
# Text: Table 1 below lists the IC50 values from this assay for individual working examples of the invention (some as mean values from multiple independent individual determinations): […]
# Sequence of FP receptor (P43088 whole entry): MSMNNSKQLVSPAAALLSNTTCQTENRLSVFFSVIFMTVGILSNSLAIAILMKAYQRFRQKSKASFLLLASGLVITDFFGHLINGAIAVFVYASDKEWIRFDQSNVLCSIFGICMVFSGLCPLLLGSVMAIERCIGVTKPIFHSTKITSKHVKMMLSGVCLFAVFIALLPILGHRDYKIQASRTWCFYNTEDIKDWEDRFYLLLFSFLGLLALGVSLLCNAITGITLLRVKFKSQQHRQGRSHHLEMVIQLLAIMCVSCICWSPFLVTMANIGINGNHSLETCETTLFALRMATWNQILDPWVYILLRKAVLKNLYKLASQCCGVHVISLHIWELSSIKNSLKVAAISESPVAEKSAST
row,Compound,IC50
1,"Cc1c(-c2ccccc2)nc2ccc(Br)cc2c1C(=O)NC(C)C(CC(=O)O)c1ccccc1Cl (single isomer, unassigned; (-)) [Example 146, (−)-4-{[(6-Bromo-3-methyl-2-phenylquinolin-4-yl)carbonyl]amino}-3-(2-chlorophenyl)pentanoic Acid]",> 1000 nM
2,"Cc1c(-c2ccccc2)nc2ccc(Br)cc2c1C(=O)NC(C)C(CC(=O)O)c1ccccc1Cl (single isomer, unassigned; (-)) [Example 149, (−)-4-{[(6-Bromo-3-methyl-2-phenylquinolin-4-yl)carbonyl]amino}-3-(2-chlorophenyl)pentanoic Acid]",> 1000 nM
3,"Cc1c(-c2ccccc2)nc2ccc(Br)cc2c1C(=O)NCC(CCC(=O)O)c1ccccc1Cl (single isomer, unassigned; (-)) [Example 152, (−)-5-{[(6-Bromo-3-methyl-2-phenylquinolin-4-yl)carbonyl]amino}-4-(2-chlorophenyl)pentanoic Acid]",7.9 nM
4,"Cc1c(-c2ccccc2)nc2ccc(Br)cc2c1C(=O)NCC(C)(CCC(=O)O)c1ccccc1Cl (single isomer, unassigned; (-)) [Example 155, (−)-5-{[(6-Bromo-3-methyl-2-phenylquinolin-4-yl)carbonyl]amino}-4-(2-chlorophenyl)-4-methylpentanoic Acid]",60 nM
5,"Cc1c(-c2ccccc2)nc2ccc(Br)cc2c1C(=O)NCC(C)(CCC(=O)O)c1cc(F)ccc1Cl (single isomer, unassigned; (-)) [Example 170, (−)-5-{[(6-Bromo-3-methyl-2-phenylquinolin-4-yl)carbonyl]amino}-4-(2-chloro-5-fluorophenyl)-4-methylpentanoic Acid]",110 nM
6,"Cc1c(-c2ccccc2)nc2ccc(Br)cc2c1C(=O)NCC(CCC(=O)O)c1c(F)cccc1F (single isomer, unassigned; (-)) [Example 182, (−)-5-{[(6-Bromo-3-methyl-2-phenylquinolin-4-yl)carbonyl]amino}-4-(2,6-difluorophenyl)pentanoic Acid]",7.2 nM
7,"Cc1c(-c2ccccc2)nc2ccc(Br)cc2c1C(=O)NCC(CCC(=O)O)c1c(Cl)ccc(F)c1F (single isomer, unassigned; (-)) [Example 201, (−)-5-{[(6-Bromo-3-methyl-2-phenylquinolin-4-yl)carbonyl]amino}-4-(6-chloro-2,3-difluorophenyl)pentanoic Acid]",1.2 nM
8,"Cc1ccc(F)cc1C(CCC(=O)O)CNC(=O)c1c(C)c(-c2ccccc2)nc2ccc(Br)cc12 (single isomer, unassigned; (-)) [Example 207, (−)-5-{[(6-Bromo-3-methyl-2-phenylquinolin-4-yl)carbonyl]amino}-4-(5-fluoro-2-methylphenyl)pentanoic Acid]",10 nM
9,"Cc1c(-c2ccccc2)nc2ccc(Br)cc2c1C(=O)NCC(CCC(=O)O)c1c(F)cccc1C(F)(F)F (single isomer, unassigned; (-)) [Example 227, (−)-5-{[(6-Bromo-3-methyl-2-phenylquinolin-4-yl)carbonyl]amino}-4-[2-fluoro-6-(trifluoromethyl)phenyl]pentanoic Acid]",1.6 nM
10,"Cc1c(-c2ccccc2)nc2ccc(Br)cc2c1C(=O)NCC(CCC(=O)O)c1c(F)c(F)cc(F)c1F (single isomer, unassigned; (-)) [Example 229, (−)-5-{[(6-Bromo-3-methyl-2-phenylquinolin-4-yl)carbonyl]amino}-4-(2,3,5,6-tetrafluorophenyl)pentanoic Acid]",2.7 nM
11,"Cc1c(-c2ccccc2)nc2ccc(Br)cc2c1C(=O)NCC(CCC(=O)O)c1c(Cl)ccc(Cl)c1Cl (single isomer, unassigned; (-)) [Example 236, (−)-5-{[(6-Bromo-3-methyl-2-phenylquinolin-4-yl)carbonyl]amino}-4-(2,3,6-trichlorophenyl)pentanoic Acid]",2 nM
12,"Cc1c(-c2ccccc2)nc2ccc(Br)cc2c1C(=O)NCC(C)(CCCC(=O)O)c1ccccc1Cl (single isomer, unassigned; (-)) [Example 241, (−)-6-{[(6-Bromo-3-methyl-2-phenylquinolin-4-yl)carbonyl]amino}-5-(2-chlorophenyl)-5-methylhexanoic Acid]",68 nM
13,"Cc1c(-c2ccccc2)nc2ccc(Br)cc2c1C(=O)NCC(C)(CCCC(=O)O)c1ccccc1 (single isomer, unassigned; (-)) [Example 244, (−)-6-{[(6-Bromo-3-methyl-2-phenylquinolin-4-yl)carbonyl]amino}-5-methyl-5-phenylhexanoic Acid]",20 nM

# Next, values leading:
row,IC50,Compound
1,3.5 nM,"Cc1c(-c2ccccc2)nc2ccc(Br)cc2c1C(=O)NCC(CCC(=O)O)c1c(F)cccc1Cl (single isomer, unassigned; (-)) [Example 158, (−)-5-{[(6-Bromo-3-methyl-2-phenylquinolin-4-yl)carbonyl]amino}-4-(2-chloro-6-fluorophenyl)pentanoic Acid]"
2,8.2 nM,"Cc1ccccc1C(CCC(=O)O)CNC(=O)c1c(C)c(-c2ccccc2)nc2ccc(Br)cc12 (single isomer, unassigned; (-)) [Example 161, (−)-5-{[(6-Bromo-3-methyl-2-phenylquinolin-4-yl)carbonyl]amino}-4-(2-methylphenyl)pentanoic Acid]"
3,15 nM,"Cc1c(-c2ccccc2)nc2ccc(Br)cc2c1C(=O)NCC(CCC(=O)O)c1cc(F)ccc1Cl (single isomer, unassigned; (-)) [Example 164, (−)-5-{[(6-Bromo-3-methyl-2-phenylquinolin-4-yl)carbonyl]amino}-4-(2-chloro-5-fluorophenyl)pentanoic Acid]"
4,26 nM,"COc1ccccc1C(CCC(=O)O)CNC(=O)c1c(C)c(-c2ccccc2)nc2ccc(Br)cc12 (single isomer, unassigned; (-)) [Example 167, (−)-5-{[(6-Bromo-3-methyl-2-phenylquinolin-4-yl)carbonyl]amino}-4-(2-methoxyphenyl)pentanoic Acid]"
5,12 nM,"Cc1c(-c2ccccc2)nc2ccc(Br)cc2c1C(=O)NCC(CCC(=O)O)c1ccccc1F (single isomer, unassigned; (-)) [Example 176, (−)-5-{[(6-Bromo-3-methyl-2-phenylquinolin-4-yl)carbonyl]amino}-4-(2-fluorophenyl)pentanoic Acid]"
6,4.1 nM,"Cc1c(-c2ccccc2)nc2ccc(Br)cc2c1C(=O)NCC(CCC(=O)O)c1ccccc1OC(F)F (single isomer, unassigned; (-)) [Example 179, (−)-5-{[(6-Bromo-3-methyl-2-phenylquinolin-4-yl)carbonyl]amino}-4-[2-(difluoromethoxy)phenyl]pentanoic Acid]"
7,3.9 nM,"Cc1c(-c2ccccc2)nc2ccc(Br)cc2c1C(=O)NCC(CCC(=O)O)c1cccc(F)c1Cl (single isomer, unassigned; (-)) [Example 185, (−)-5-{[(6-Bromo-3-methyl-2-phenylquinolin-4-yl)carbonyl]amino}-4-(2-chloro-3-fluorophenyl)pentanoic Acid]"
8,54 nM,"Cc1c(-c2ccccc2)nc2ccc(Br)cc2c1C(=O)NCC(c1ccccc1Cl)N(C)CC(=O)O (single isomer, unassigned; (-)) [Example 188, (−)-N-[2-{[(6-Bromo-3-methyl-2-phenylquinolin-4-yl)carbonyl]amino}-1-(2-chlorophenyl)ethyl]-N-methylglycine]"
9,150 nM,"Cc1c(-c2ccccc2)nc2ccc(Br)cc2c1C(=O)NCC(OCC(=O)O)c1ccccc1Cl (single isomer, unassigned; (-)) [Example 193, (−)-[2-{[(6-Bromo-3-methyl-2-phenylquinolin-4-yl)carbonyl]amino}-1-(2-chlorophenyl)ethoxy]acetic Acid]"
10,12 nM,"Cc1c(-c2ccccc2)nc2ccc(Br)cc2c1C(=O)NCC(SCC(=O)O)c1ccccc1Cl (single isomer, unassigned; (-)) [Example 196, (−)-{[2-{[(6-Bromo-3-methyl-2-phenylquinolin-4-yl)carbonyl]amino}-1-(2-chlorophenyl)ethyl]sulfanyl}acetic Acid]"
11,3.7 nM,"Cc1c(-c2ccccc2)nc2ccc(Br)cc2c1C(=O)NCC(CCC(=O)O)c1ccccc1C(F)(F)F (single isomer, unassigned; (-)) [Example 204, (−)-5-{[(6-Bromo-3-methyl-2-phenylquinolin-4-yl)carbonyl]amino}-4-[2-(trifluoromethyl)phenyl]pentanoic Acid]"
12,1.7 nM,"Cc1c(-c2ccccc2)nc2ccc(Br)cc2c1C(=O)NCC(CCC(=O)O)c1ccccc1OC(F)(F)F (single isomer, unassigned; (-)) [Example 211, (−)-5-{[(6-Bromo-3-methyl-2-phenylquinolin-4-yl)carbonyl]amino}-4-[2-(trifluoromethoxy)phenyl]pentanoic Acid]"
13,2.8 nM,"O=C(O)CCC(CNC(=O)c1c(Cl)c(-c2ccccc2)nc2ccc(Br)cc12)c1ccccc1Cl (single isomer, unassigned; (-)) [Example 213, (−)-5-{[(6-Bromo-3-chloro-2-phenylquinolin-4-yl)carbonyl]amino}-4-(2-chlorophenyl)pentanoic Acid]"
14,5 nM,"O=C(O)CCC(CNC(=O)c1c(Cl)c(-c2ccccc2)nc2ccc(Br)cc12)c1ccccc1C(F)(F)F (single isomer, unassigned; (-)) [Example 216, (−)-5-{[(6-Bromo-3-chloro-2-phenylquinolin-4-yl)carbonyl]amino}-4-[2-(trifluoromethyl)phenyl]pentanoic Acid]"
15,10 nM,"C#Cc1ccc2nc(-c3ccccc3)c(C)c(C(=O)NCC(CCC(=O)O)c3ccccc3Cl)c2c1 (single isomer, unassigned; (-)) [Example 219, (−)-4-(2-Chlorophenyl)-5-{[(6-ethynyl-3-methyl-2-phenylquinolin-4-yl)carbonyl]amino}pentanoic Acid]"
16,0.96 nM,"O=C(O)CCC(CNC(=O)c1c(Cl)c(-c2ccccc2)nc2ccc(Br)cc12)c1c(F)ccc(F)c1Cl (single isomer, unassigned; (-)) [Example 222, (−)-5-{[(6-Bromo-3-chloro-2-phenylquinolin-4-yl)carbonyl]amino}-4-(2-chloro-3,6-difluorophenyl)pentanoic Acid]"
